In ChEMBL document CHEMBL1128980, “(R)-3-(6-chloro-1-isopropylbenzimidazole-4-carboxamido)quinuclidine: A high affinity ligand for the (R)-zacopride binding site” (Bioorg Med Chem Lett, 1996):

Legend:
[1] = target: T1, 5-hydroxytryptamine receptor 3A (Homo sapiens, UniProt P46098); assay: Binding affinity for 5-hydroxytryptamine 3 receptor by displacement of [3H]-BRL 43694 from NG-108-15 cell membranes
T1 sequence (P46098 whole entry): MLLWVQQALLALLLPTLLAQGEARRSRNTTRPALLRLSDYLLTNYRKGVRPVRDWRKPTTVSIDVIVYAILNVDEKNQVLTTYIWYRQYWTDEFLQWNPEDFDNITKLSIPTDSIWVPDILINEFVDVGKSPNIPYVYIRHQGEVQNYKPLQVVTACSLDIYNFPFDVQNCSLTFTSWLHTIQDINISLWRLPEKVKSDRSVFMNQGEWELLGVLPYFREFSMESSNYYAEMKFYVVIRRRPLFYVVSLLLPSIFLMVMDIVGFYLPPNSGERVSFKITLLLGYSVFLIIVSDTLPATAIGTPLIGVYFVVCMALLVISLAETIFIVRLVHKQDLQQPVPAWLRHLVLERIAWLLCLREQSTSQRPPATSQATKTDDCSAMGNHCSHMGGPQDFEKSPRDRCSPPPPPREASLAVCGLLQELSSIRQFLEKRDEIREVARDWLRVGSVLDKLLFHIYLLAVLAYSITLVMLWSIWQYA

[2] = target: 5-hydroxytryptamine receptor 4 (Cavia porcellus, UniProt O70528); assay: Binding affinity for 5-hydroxytryptamine 4 receptor by displacement of [3H]GR-113808 from guinea pig brain striatum.
[3] = target: T1, 5-hydroxytryptamine receptor 3A; assay: Binding affinity for 5-hydroxytryptamine 3 receptor by displacement of [3H](R)-zacopride from ondansetron-treated NG-108-15 cell membranes
[4] = target: T2, Serotonin 3 (5-HT3) receptor (Rattus norvegicus, UniProt P35563+Q9JJ16); assay: Binding affinity for 5-hydroxytryptamine 3 receptor by displacement of racemic [3H]zacopride from rat cortex
T2 sequence (P35563 whole entry): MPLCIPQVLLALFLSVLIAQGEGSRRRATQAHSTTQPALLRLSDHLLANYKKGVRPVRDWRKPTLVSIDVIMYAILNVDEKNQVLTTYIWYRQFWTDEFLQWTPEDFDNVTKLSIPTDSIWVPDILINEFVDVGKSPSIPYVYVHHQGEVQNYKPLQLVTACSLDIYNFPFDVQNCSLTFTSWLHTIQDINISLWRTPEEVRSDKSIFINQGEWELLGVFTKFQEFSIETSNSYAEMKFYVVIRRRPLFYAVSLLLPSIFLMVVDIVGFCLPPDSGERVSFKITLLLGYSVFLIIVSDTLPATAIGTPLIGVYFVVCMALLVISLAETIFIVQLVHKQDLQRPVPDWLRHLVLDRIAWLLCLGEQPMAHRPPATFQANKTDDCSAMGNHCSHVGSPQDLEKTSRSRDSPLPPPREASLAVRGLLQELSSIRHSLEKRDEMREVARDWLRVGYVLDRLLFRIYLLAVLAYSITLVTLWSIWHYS
T2 sequence (Q9JJ16 whole entry): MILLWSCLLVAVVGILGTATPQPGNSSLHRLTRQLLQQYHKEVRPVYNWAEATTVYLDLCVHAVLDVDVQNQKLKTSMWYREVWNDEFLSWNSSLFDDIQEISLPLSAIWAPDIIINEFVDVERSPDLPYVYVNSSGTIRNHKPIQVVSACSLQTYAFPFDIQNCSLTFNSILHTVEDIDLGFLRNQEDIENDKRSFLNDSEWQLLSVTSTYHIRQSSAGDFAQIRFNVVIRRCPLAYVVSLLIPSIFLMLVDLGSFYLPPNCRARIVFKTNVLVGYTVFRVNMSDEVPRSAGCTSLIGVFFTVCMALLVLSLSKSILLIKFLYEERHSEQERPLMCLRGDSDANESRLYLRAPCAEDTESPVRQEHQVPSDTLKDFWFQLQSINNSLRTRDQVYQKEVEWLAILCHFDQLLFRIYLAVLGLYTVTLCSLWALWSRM

Sequence of 5-hydroxytryptamine receptor 4 (O70528 whole entry): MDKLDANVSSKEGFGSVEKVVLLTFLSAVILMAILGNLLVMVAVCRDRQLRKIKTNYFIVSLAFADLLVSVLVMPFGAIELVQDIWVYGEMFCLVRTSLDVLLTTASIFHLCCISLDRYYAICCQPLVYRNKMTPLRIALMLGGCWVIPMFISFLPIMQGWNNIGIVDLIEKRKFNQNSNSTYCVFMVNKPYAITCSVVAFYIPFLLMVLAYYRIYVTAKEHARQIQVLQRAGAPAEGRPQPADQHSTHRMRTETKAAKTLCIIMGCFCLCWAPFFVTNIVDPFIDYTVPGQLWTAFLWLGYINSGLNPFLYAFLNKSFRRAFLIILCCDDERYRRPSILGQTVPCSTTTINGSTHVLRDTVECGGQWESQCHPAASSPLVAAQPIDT

Row | Compound | Ki [1] | Ki [2] | Ki [3] | Ki [4]
1 | CC(C)n1cnc2c(C(=O)NC3CC4CCC(C3)N4C)cc(Cl)cc21 (configuration not stated) | 0.001 µM | 0.158 µM | 0.02 µM | 
2 | COc1cc(N)c(Cl)cc1C(=O)N[C@H]1CN2CCC1CC2 [(R)ZACOPRIDE] |  | 2.82 µM |  | 0.00372 µM
3 | CC(C)n1cnc2c(C(=O)N[C@H]3CN4CCC3CC4)cc(Cl)cc21 |  | 0.024 µM |  | 
4 | COc1cc(N)c(Cl)cc1C(=O)N[C@@H]1CN2CCC1CC2 |  | 0.437 µM |  | 
